B1: DAT (hDAT) (Homo sapiens; D436A) (protein)
chain: MSKSKCSVGLMSSVVAPAKEPNAVGPKEVELILVKEQNGVQLTSSTLTNPRQSPVEAQDRETWGKKIDFLLSVIGFAVDLANVWRFPYLCYKNGGGAFLVPYLLFMVIAGMPLFYMELALGQFNREGAAGVWKICPILKGVGFTVILISLYVGFFYNVIIAWALHYLFSSFTTELPWIHCNNSWNSPNCSDAHPGDSSGDSSGLNDTFGTTPAAEYFERGVLHLHQSHGIDDLGPPRWQLTACLVLVIVLLYFSLWKGVKTSGKVVWITATMPYVVLTALLLRGVTLPGAIDGIRAYLSVDFYRLCEASVWIDAATQVCFSLGVGFGVLIAFSSYNKFTNNCYRDAIVTTSINSLTSFSSGFVVFSFLGYMAQKHSVPIGDVAKDGPGLIFIIYPEAIATLPLSSAWAVVFFIMLLTLGIDSAMGGMESVITGLIAEFQLLHRHRELFTLFIVLATFLLSLFCVTNGGIYVFTLLDHFAAGTSILFGVLIEAIGVAWFYGVGQFSDDIQQMTGQRPSLYWRLCWKLVSPCFLLFVVVVSIVTFRPPHYGAYIFPDWANALGWVIATSSMAMVPIYAAYKFCSLPGSFREKLAYAIAPEKDRELVDRGEVRQFTLRHWLKV

Columns and labels:
DAT (hDAT) = molecular target: T1, DAT (hDAT) (Homo sapiens, UniProt Q01959); details: read-out: DA Km; 130 mM NaCl, pH 7.4; 6 nM [3H]DA plus unlabelled DA; apparent affinity for uptake
T1 construct: gene SLC6A3

[1] = substrate: NCCc1ccc(O)c(O)c1; experiment: cells, lysate or membranes; details: 130 mM NaCl, pH 7.4, 6 nM [3H]DA plus unlabelled DA, apparent affinity for uptake

T1 sequence (Q01959 whole entry): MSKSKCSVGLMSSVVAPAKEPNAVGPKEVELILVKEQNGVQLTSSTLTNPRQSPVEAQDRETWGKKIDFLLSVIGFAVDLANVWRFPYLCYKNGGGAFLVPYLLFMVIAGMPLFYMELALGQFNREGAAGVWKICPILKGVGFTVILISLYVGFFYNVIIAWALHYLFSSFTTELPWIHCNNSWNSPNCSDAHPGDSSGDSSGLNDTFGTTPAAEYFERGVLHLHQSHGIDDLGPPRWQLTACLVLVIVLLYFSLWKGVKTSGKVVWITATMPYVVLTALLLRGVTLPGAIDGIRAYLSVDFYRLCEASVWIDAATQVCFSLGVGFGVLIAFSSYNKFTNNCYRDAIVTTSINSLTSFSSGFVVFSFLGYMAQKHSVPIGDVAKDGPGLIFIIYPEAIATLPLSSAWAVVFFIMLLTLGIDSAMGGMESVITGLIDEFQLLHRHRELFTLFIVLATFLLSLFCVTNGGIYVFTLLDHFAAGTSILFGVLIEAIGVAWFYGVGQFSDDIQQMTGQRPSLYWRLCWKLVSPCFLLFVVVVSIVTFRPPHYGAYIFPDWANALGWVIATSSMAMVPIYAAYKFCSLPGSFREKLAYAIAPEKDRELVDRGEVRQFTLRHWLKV

Molecule | Km (DAT (hDAT)) [µM] | Km [1]
NCCc1ccc(O)c(O)c1 [dopamine] | 1.2 | 
B1 |  | 0.15 [0.13;0.18] μM
